Here are results for three compounds from PMC8565742 (PLoS Neglected Tropical Diseases, 2021).

As a reminder, the EC50 is the concentration needed to bring the measured effect to its halfway point. Broadly, the IC50 is the midpoint of a concentration-inhibition curve.

Molecules are shown by their SMILES. Where two headings read alike, the source gives them in different places. A value given as a limit tells only on which side of the number the result lay.

For assay [1], the target named is T1, Sm.TRPMPZQ (Schistosoma mansoni, UniProt A0A5K4F0X5). The assay can be described thus: cell-based. Here is the method: HEK cells were transfected with cDNA (400μg/ml DNA) encoding Sm.TRPMPZQ using a Maxcyte STX electroporation system and incubated overnight at 37°C. This system is uniquely capabable of large scale transfections providing one batch of cells ready for large scale HTS [30]. Briefly, the HEK cells were resuspended at 10^8/ml in Maxcyte electroporation buffer. Plasmid DNA was added to the cells in buffer to achieve a concentration of 400 μg/ml from a stock of 5mg/ml (in TE buffer). This mixture was loaded into the appropriate cassette, inserted into the machine, and cells electroporated. Cells were then frozen to provide a single supply of transfected cells for all subsequent assays. On the day of the assays, cells were thawed in a 37°C waterbath, and resuspended in DMEM + 10% FBS and counted. The cells were pelleted by centrifugation at 170xg for 5 minutes. The media was aspirated, and the remaining pellet was resuspended in 1x HBSS with 20 mM HEPES and 1% DMSO to achieve 1.33x10^6cells/ml. This cell suspension was then dispensed at 3 μl/well to the 1536 well plates (Greiner Bio One part 789072) at a density of 4,000 cells/well. Measurements of fluorescence intensity (λex = 470 nm, λem = 535 nm) were made using a FLIPR (Molecular Devices FLIPR Tetra). A read of basal fluorescence values was made (5s) prior to addition of compounds or controls (30 nl). In both ‘agonist’ and ‘antagonist mode’, the total assay volume was 6μl (1% DMSO). […] Ligand performance was categorized using an algorithm based on the activity of the entire dataset to define a ‘hit-cutoff’ parameter for both agonist-mode and antagonist-mode screening. […] Titration assays were executed using the same reagents, protocols and detection systems, done as 10-point concentration-response curves, performed in triplicate. Counter-screening was performed using untransfected HEK293 cells for comparison with results testing the same compounds effect on cells expressing Sm.TRPMPZQ, with ATP used as the positive control. For each compound, activity was plotted against compound concentration and data were fitted with a sigmoidal function. […] ChemAxon (https://www.chemaxon.com) academic licensing was provided for the use of Instant JChem (ver. 15.10.12.0) to perform compound mining of the libraries utilized in this effort.
T1 sequence (A0A5K4F0X5 entry or part of it): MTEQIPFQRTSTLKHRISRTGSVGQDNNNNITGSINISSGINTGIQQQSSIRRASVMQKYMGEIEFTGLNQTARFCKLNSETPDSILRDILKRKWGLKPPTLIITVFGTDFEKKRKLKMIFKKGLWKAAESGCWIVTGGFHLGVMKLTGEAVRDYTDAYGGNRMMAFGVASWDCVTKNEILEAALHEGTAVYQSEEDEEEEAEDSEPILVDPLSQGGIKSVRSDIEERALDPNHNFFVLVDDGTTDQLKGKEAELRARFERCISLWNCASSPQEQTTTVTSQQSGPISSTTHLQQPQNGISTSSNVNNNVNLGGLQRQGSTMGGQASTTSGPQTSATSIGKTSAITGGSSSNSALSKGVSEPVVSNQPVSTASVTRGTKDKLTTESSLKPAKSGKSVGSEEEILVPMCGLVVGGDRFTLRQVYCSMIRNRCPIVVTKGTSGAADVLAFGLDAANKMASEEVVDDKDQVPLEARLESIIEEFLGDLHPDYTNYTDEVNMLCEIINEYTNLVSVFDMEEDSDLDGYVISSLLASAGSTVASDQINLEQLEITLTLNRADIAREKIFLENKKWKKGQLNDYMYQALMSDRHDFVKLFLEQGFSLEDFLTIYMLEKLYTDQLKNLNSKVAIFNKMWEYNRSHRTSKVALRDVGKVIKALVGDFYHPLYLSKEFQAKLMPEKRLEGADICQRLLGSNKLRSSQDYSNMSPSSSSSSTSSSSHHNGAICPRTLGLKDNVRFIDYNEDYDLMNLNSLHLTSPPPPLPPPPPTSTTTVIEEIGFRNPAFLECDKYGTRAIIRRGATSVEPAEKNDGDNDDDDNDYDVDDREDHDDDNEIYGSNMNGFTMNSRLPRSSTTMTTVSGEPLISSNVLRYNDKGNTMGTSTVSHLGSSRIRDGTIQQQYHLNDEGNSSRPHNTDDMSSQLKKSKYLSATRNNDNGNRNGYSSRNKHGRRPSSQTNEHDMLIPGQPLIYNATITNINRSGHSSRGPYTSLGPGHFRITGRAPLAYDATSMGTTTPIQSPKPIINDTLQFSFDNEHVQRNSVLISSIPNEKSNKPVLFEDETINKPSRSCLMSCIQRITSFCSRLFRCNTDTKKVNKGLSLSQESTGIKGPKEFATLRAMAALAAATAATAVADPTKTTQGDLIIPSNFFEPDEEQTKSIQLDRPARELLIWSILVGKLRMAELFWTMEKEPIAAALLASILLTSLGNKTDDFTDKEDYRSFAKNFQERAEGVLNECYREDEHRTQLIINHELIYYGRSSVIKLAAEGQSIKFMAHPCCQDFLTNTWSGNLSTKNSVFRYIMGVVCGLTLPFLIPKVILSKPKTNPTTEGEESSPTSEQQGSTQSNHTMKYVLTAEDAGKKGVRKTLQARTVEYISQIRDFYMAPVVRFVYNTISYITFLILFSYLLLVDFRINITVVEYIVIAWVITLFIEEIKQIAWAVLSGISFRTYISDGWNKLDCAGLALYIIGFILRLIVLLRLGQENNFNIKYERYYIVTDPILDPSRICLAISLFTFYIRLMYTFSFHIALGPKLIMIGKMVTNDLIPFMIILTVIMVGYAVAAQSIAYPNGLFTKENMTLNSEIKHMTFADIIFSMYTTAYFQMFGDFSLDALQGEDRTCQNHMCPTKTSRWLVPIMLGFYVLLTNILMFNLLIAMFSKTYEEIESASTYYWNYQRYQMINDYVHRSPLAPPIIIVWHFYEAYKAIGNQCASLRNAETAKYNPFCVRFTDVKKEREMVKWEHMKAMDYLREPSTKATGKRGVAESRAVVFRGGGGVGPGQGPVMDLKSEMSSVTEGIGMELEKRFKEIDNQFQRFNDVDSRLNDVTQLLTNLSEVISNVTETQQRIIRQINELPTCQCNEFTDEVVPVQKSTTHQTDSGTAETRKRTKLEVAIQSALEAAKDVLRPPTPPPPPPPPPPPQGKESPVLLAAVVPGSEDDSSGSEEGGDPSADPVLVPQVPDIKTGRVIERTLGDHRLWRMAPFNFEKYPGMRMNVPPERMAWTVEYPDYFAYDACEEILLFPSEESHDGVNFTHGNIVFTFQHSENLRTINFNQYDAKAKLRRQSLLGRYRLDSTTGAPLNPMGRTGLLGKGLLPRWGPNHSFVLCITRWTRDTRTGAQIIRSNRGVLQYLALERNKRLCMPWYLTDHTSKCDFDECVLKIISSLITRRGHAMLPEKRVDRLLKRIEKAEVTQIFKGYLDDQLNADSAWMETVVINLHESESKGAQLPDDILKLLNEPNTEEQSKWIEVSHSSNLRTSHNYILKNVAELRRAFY

Assay [2] relates to untransfected HEK293 cells. The assay can be described thus: Counterscreen, agonist mode, Ca2+ signal in untransfected HEK cells. The class given is cell-based. As to conditions: for EC50: Homo sapiens, HEK293, unit inferred, read-out: HEK AG Final EC50; for EC50 / HEK AG Averaged Max % Response: counterscreen titration. Here is the method:
HEK cells were transfected with cDNA (400μg/ml DNA) encoding Sm.TRPMPZQ using a Maxcyte STX electroporation system and incubated overnight at 37°C. This system is uniquely capabable of large scale transfections providing one batch of cells ready for large scale HTS [30]. Briefly, the HEK cells were resuspended at 10^8/ml in Maxcyte electroporation buffer. Plasmid DNA was added to the cells in buffer to achieve a concentration of 400 μg/ml from a stock of 5mg/ml (in TE buffer). This mixture was loaded into the appropriate cassette, inserted into the machine, and cells electroporated. Cells were then frozen to provide a single supply of transfected cells for all subsequent assays. On the day of the assays, cells were thawed in a 37°C waterbath, and resuspended in DMEM + 10% FBS and counted. The cells were pelleted by centrifugation at 170xg for 5 minutes. The media was aspirated, and the remaining pellet was resuspended in 1x HBSS with 20 mM HEPES and 1% DMSO to achieve 1.33x10^6cells/ml. This cell suspension was then dispensed at 3 μl/well to the 1536 well plates (Greiner Bio One part 789072) at a density of 4,000 cells/well. Measurements of fluorescence intensity (λex = 470 nm, λem = 535 nm) were made using a FLIPR (Molecular Devices FLIPR Tetra). A read of basal fluorescence values was made (5s) prior to addition of compounds or controls (30 nl). In both ‘agonist’ and ‘antagonist mode’, the total assay volume was 6μl (1% DMSO). […] Ligand performance was categorized using an algorithm based on the activity of the entire dataset to define a ‘hit-cutoff’ parameter for both agonist-mode and antagonist-mode screening. Any compound with greater percent activation than this cutoff was assigned as ‘active’ prior to titration and counter-screening. Titration assays were executed using the same reagents, protocols and detection systems, done as 10-point concentration-response curves, performed in triplicate. Counter-screening was performed using untransfected HEK293 cells for comparison with results testing the same compounds effect on cells expressing Sm.TRPMPZQ, with ATP used as the positive control. For each compound, activity was plotted against compound concentration and data were fitted with a sigmoidal function. In order to be considered a hit at this stage a compound must achieve a EC50<5 μM for agonists and IC50 <5 μM for antagonists. All compounds selected for titration were subjected to LC-MS analysis to confirm mass and sample purity. ChemAxon (https://www.chemaxon.com) academic licensing was provided for the use of Instant JChem (ver. 15.10.12.0) to perform compound mining of the libraries utilized in this effort.
For orientation: Counterscreens check selectivity or assay interference.

In assay [3] the test system is Sm.TRPMPZQ[R1514A]. In words: Ca2+ signal in cells expressing the binding pocket mutant. The class given is cell-based, Schistosoma mansoni.
In assay [4] the test system is adult schistosome worms. The assay can be described thus: Schistosome mobility assay ex vivo. The class given is cell-based, S. mansoni. Here is the method:
Adult schistosomes were harvested from the mesenteric vasculature of female Swiss Webster mice previously infected (~49 days earlier) with S. mansoni cercariae (NMRI strain) by the Schistosomiasis Resource Center at the Biomedical Research Institute (BRI, Rockville, MD). Harvested schistosomes were washed in RPMI 1640 supplemented with 5% heat inactivated FBS (Gibco), HEPES (25 mM) and penicillin-streptomycin (100 units/mL). After isolation, worms were incubated overnight (37°C/5% CO2) in vented petri dishes (100x25 mm). Movement assays were performed using male and female worms in six well dishes (~5 individual worms/3ml media per well). Video recordings of worm motility (4 frames/sec) were captured using a Zeiss Discovery v20 stereomicroscope coupled to a QiCAM 12-bit cooled color CCD camera controlled by Metamorph imaging software.

For assay [5], the system named is schistosomes. Also on record: method as in PMID 27128493. Conditions: read-out: IC50 in phenotypic assays; cited from earlier work.
The target of assay [6] is T1, Sm.TRPMPZQ. As to conditions: confocal Ca2+ imaging; cited from earlier work.
The mark [7] stands for this setting: S2 Table, titration, listed as SR-01000003100-19.

Consider `COc1ccc(-c2nnc3ccc(-c4cccc(C(C)C)c4)cn23)cc1OC` [AG1, 3-(3,4-Dimethoxyphenyl)-6-(3-propan-2-ylphenyl)-[1,2,4]triazolo[4,3-a]pyridine], for which the Emax in assay [1] (HEK293, S2 Table, titration, read-out: Sm.TRPMPZQ AG Averaged Max % Response) turned out to be 97.5%. Moreover, the activation at 5 µM in assay [1] (HEK293, read-out: Bmax, activation in primary screen) worked out at 93.9 ± 5.6%. Also, the EC50 is 1.56 µM in assay [1] (S2 Table, 10-point titration in triplicate, unit inferred, read-out: Sm.TRPMPZQ AG Final EC50); 1.6 ± 0.3 µM in assay [1] (concentration-response of library sample, Ca2+ flux, read-out: EC50); 9.2 µM in assay [1] (re-sourced, independently procured sample, read-out: EC50); more than 12.4 µM in assay [2] (S2 Table). For the same compound, the “Sm.TRPMPZQ AG Hill Slope” value in assay [1] (S2 Table, titration) is given as 1.659. Also, the agonist efficacy entry in assay [1] (concentration-response curve analysis) is “full agonist”. In assay [2] (S2 Table), the “HEK AG Averaged Max % Response” value was 8.295%. In addition, the “activity on counter-screening in naïve HEK cells” value in assay [2] (concentration-response) was “no activity”. The “Ca2+ elevation at binding site mutant” value in assay [3] is “ablated AG1 activity”. Also, in assay [4] (agonist alone), the “effect on adult worms ex vivo” value was “evoked a sustained contraction”. For the same compound, the 50% inhibitory concentration (IC50) in assay [5] is approximately 1.6 µM.
`Cc1onc(-c2ccccc2)c1C(=O)N1CCN(C2c3ccccc3-c3ccccc32)CC1` [ANT1, 1-(9H-fluoren-9-yl)-4-(5-methyl-3-phenyl-1,2-oxazole-4-carbonyl)piperazine]: in assay [1] (HEK293, S3 Table, titration, read-out: Sm.TRPMPZQ AG Averaged Max % Response), the Emax is 11.6%. In addition, the EC50 is more than 12.4 µM in assay [1] (S3 Table, 10-point titration in triplicate, unit inferred, read-out: Sm.TRPMPZQ AG Final EC50) and more than 12.4 µM in assay [2] (S3 Table). Also, in assay [2] (S3 Table), the “HEK AG Averaged Max % Response” value is listed as 25.3604%. In addition, the “recovery of worms in continued presence of PZQ” value in assay [4] (50μM, PZQ 250 nM, 24 hours, compared to PZQ alone) is listed as “enhanced recovery”. Moreover, in assay [4] (applied alone to intact worms), the “effect on worm motility” value was “did not change worm motility”.
Consider `O=C(C1CCCCC1)N1CC(=O)N2CCc3ccccc3C2C1` (centres unmarked) [PZQ, praziquantel, reference compound], for which the Emax in assay [1] (HEK293, read-out: Sm.TRPMPZQ AG Averaged Max % Response, S2 Table, titration) was determined as 80.3%. Further, the “Sm.TRPMPZQ AG Hill Slope” value came to 1.753 in assay [1] (S2 Table, titration, listed as SR-01000003100-3) and 1.657 in assay [1] (setting [7]). Further, the “Sm.TRPMPZQ AG Averaged Max % Response” value in assay [1] (setting [7]) is 90.5499%. The concentration for a half-maximal effect (EC50) in assay [2] (S2 Table) was more than 12.4 µM. In addition, the “HEK AG Averaged Max % Response” value in assay [2] (S2 Table, listed as SR-01000003100-3) is 2.271%; in assay [2] (S2 Table, listed as SR-01000003100-19), 17.5496%. Also, in assay [2] (≤30 μM, untransfected HEK293 cells), the “change in basal fluorescence” value is “failed to elicit any change in basal fluorescence”. Also, the “Ca2+ elevation at binding site mutant” value in assay [3] is “did not elevate Ca^2+”. Moreover, the “ΔF/F, amplitude of Ca2+ transient” value in assay [6] is on record as 12.3±2.1.
